Experimental data reported in patent US20170027902A1, “Use of a Composition Comprising a Flavonol, A Flavonoid, and a Fatty Acid in the Treatment of Oxidative Injuries Due to Mitochondrial Dysfunction” (priority 2014, published 2017).

Test system: primary mouse cortical cultures
Assay: Confocal imaging of calcium transients and mitochondrial membrane potential
Format: cell-based
Method: Embryonic day 16 timed pregnant CD1 out-bred mice were obtained from Charles River Laboratories (Charles River; QC, Canada). Primary cortical neuron cultures were prepared from cerebral cortices of wild type (WT) CD1 mouse embryos as described previously, with the following modifications. Pregnant CD1 females were heavily anaesthetized with isoflurane vapor (Benson Medical Industries, Inc., Markham, ON) before being euthanized by decapitation. The embryonic day 16 (E16) fetuses were immediately removed from the sacrificed pregnant females by cesarean section and placed in ice-cold Hank's Balanced Salt Solution (HBSS) (GIBCO; Invitrogen, Amarillo, Calif.). The meninges were removed from the brains and cortices were isolated under a dissecting microscope. The cortices from each embryo were placed in individual wells of a 24-well plate (Corning; Lowell, Mass.), containing 1 ml of ice-cold PBS (GIBCO; […] Under sterile conditions, the tissue was briefly minced, transferred to 15 ml sterile conical tubes (Corning; Lowell, Mass.) and centrifuged at 350×g for 3 min at room temperature. The dissecting solution was discarded and the cortical neurons were then dissociated trituration with fire-polished glass pipettes followed by incubating in 1 ml of 0.1% trypsin solution (0.1% w/v trypsin (Invitrogen, Amarillo, Calif.) in PBS with 1 mM Mg^2+ and 13 mM glucose) at 37° C. for 15 min. The trypsinization was inhibited by the addition of 0.5 ml of trypsin inhibitor solution that also contained DNase I (0.06% w/v trypsin inhibitor (Invitrogen; Amarillo, Calif.) and 0.01% DNase I (Invitrogen; […] The tubes were mixed briefly and the cells were centrifuged at 350×g for 3 min at room temperature. The trypsin and inhibitor solutions were discarded and each cell pellet was suspended in 1 ml of cortical neuron plating medium (Neurobasal medium (Invitrogen, Amarillo, Calif.) with 10% fetal bovine serum (GIBCO; Invitrogen; Amarillo, Calif.), 2% B27 supplement, 1 mM L-glutamine, and 1% Gentamycin (Invitrogen; […] Cortical neurons were plated in 96-well plates (Corning; Lowell, Mass.) that were pre-coated with poly-D-lysine (PDL; Sigma-Aldrich; Oakville, ON) according to the procedure described by the manufacturer. Briefly, plates were coated immediately before use with 100 μg/ml PDL for 5-10 min (50 μl/well), washed three times with tissue-culture grade water and left to dry for 2 h before cells were introduced. Cortical neurons were plated at a concentration of 1×10^6 cells/ml (100 µl/well) and medium was completely changed the day after plating to serum-free cortical neuron medium (Neurobasal medium with 2% B27 supplement, 5 mM HEPES, 0.5 mM L-glutamine, and 20 μg/ml Gentamycin), which was replaced every 3 days in culture. Cultures were maintained in a humidified, 37° C. incubator with 5% CO2. Experiments were performed on the eighth day in vitro (DIV10). For measurements of mitochondrial membrane potential (ΔΨm), cells were loaded with 25 nM tetrannethylrhodamine methyl ester (TMRM) for 30 min at room temperature and the dye was present during the experiment. TMRM is used in the redistribution mode to assess ΔΨm with a reduction in TMRM fluorescence indicating mitochondrial depolarization. Neurons were loaded for 30 min at room temperature with X-rhod-1 AM (0.5 μM) and Fluo-3 AM (0.5 μM) (Molecular Probes, Invitrogen) prior to imaging in HEPES-buffered salt solution (HBSS) composed of (mM): 156 NaCl, 3 KCl, 2 MgSO4, 1.25 KH2PO4, 2 CaCl2, 10 glucose and 10 HEPES, pH adjusted to 7.35 with NaOH. Confocal images were obtained using a 510 CLSM (Zeiss, Thornwood, N.Y.) equipped with a META detection system and a […] oil-immersion objective. The 488 nm Argon laser line was used to excite fluo-3 fluorescence, which was measured using a bandpass filter from 505 to 550 nm. Illumination intensity was kept to a minimum (at 0.1-0.2% of laser output) to avoid phototoxicity and the pinhole was set to give an optical slice of 2 μm. […]

Structure (SMILES) | TMRM fluorescence (added after Q and thapsigargin) | [Ca2+]c (added after Q and thapsigargin) | [Ca2+]c oscillations stimulated by Q (5 μM, depletion of ER Ca2+ stores)
N#CC(C#N)=NNc1ccc(OC(F)(F)F)cc1 [FCCP, carbonyl cyanide-4-(trifluoromethoxy)phenylhydrazone] | complete loss | sharp increase | 
C/C=C(/C)C(=O)O[C@H]1C(C)=C2[C@H]([C@@H]1OC(=O)CCCCCCC)[C@@](C)(OC(C)=O)C[C@H](OC(=O)CCC)[C@@]1(O)[C@H]2OC(=O)[C@@]1(C)O [thapsigargin] |  |  | blocked
